Data taken from ChEMBL document CHEMBL5291721, “A preclinical secondary pharmacology resource illuminates target-adverse drug reaction associations of marketed drugs” (Nat Commun, 2023).

Columns and labels:
Vasopressin V1a receptor = Vasopressin V1a receptor (Homo sapiens, UniProt P37288)
[1] = target: T1, Muscarinic acetylcholine receptor M2 (Homo sapiens, UniProt P08172); assay type: functional, cell-based
T1 sequence (P08172 whole entry): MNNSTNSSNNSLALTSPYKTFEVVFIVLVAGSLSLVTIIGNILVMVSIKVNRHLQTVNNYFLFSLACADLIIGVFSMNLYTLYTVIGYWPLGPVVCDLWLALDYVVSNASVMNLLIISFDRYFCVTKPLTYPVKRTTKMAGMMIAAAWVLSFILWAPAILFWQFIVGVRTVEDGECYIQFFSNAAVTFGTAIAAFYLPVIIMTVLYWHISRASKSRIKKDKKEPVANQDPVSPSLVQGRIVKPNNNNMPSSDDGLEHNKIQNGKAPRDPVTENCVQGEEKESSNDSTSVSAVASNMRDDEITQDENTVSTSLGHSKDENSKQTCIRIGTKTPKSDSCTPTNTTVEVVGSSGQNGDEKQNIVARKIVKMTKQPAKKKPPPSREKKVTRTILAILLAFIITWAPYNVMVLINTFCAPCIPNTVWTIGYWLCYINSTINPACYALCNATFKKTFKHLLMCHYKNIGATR

[2] = target: Sodium-dependent serotonin transporter (Homo sapiens, UniProt P31645)
Sequence of Sodium-dependent serotonin transporter (P31645 whole entry): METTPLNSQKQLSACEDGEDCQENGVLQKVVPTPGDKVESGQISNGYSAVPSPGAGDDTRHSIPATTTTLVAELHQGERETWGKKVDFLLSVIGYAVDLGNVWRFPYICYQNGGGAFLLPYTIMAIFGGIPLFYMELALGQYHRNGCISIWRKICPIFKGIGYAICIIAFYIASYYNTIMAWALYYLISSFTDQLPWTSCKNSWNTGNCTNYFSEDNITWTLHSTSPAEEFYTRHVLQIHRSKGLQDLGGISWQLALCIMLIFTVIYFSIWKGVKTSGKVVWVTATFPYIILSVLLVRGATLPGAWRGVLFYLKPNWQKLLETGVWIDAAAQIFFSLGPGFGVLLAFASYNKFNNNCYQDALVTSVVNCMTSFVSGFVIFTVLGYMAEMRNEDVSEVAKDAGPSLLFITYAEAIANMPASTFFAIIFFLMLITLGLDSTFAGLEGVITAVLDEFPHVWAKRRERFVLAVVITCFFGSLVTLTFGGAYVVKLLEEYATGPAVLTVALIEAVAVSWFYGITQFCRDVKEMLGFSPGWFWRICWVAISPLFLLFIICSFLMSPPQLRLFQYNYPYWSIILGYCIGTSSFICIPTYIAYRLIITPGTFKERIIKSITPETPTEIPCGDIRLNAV

[3] = target: 5-hydroxytryptamine receptor 2A (Homo sapiens, UniProt P28223); assay type: functional, cell-based
Sequence of 5-hydroxytryptamine receptor 2A (P28223 whole entry): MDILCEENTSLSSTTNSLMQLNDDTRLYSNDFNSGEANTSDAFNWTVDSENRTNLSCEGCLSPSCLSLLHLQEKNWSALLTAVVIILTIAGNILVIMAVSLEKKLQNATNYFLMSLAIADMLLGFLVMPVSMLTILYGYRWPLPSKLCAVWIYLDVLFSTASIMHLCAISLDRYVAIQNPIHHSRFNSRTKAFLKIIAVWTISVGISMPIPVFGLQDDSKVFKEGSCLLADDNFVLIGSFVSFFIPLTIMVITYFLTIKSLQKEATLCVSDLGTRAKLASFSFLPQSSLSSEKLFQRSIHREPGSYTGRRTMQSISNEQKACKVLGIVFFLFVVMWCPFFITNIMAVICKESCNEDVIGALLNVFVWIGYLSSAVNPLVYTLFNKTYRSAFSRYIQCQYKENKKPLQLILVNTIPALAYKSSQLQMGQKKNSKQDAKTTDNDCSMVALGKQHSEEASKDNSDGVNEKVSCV

[4] = target: T2, Alpha-1A adrenergic receptor (Homo sapiens, UniProt P35348); assay type: functional, cell-based
T2 sequence (P35348 whole entry): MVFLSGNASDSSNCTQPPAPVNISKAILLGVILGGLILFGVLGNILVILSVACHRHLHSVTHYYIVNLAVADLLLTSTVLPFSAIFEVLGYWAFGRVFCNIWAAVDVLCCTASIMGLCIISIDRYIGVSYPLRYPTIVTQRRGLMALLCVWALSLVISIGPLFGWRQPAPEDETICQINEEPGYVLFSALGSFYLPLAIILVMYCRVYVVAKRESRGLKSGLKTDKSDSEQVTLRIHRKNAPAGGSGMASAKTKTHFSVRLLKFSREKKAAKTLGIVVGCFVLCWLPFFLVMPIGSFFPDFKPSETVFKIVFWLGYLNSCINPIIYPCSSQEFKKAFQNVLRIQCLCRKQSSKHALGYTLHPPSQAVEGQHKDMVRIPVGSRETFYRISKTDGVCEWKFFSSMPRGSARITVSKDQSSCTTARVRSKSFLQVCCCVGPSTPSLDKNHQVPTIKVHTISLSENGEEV

Cannabinoid receptor 1 = Cannabinoid receptor 1 (Homo sapiens, UniProt P21554); assay type: functional, cell-based
Sequence of Cannabinoid receptor 1 (P21554 whole entry): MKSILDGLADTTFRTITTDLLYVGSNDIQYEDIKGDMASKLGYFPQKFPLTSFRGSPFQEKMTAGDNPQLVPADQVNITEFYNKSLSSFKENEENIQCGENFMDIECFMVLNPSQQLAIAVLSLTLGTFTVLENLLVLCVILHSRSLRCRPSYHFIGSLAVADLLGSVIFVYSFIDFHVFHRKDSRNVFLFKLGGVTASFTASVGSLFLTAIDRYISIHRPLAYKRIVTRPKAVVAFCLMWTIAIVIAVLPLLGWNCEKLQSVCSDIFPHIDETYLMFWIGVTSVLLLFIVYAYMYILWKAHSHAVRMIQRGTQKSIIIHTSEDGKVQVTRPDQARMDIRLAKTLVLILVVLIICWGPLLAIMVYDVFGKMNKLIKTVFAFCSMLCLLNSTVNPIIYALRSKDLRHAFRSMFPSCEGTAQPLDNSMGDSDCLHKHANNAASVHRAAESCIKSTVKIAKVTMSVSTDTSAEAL

[5] = target: T1, Muscarinic acetylcholine receptor M2; assay type: functional, cell-based; remark: listed apart in the source
Endothelin-1 receptor = target: T3, Endothelin-1 receptor (Homo sapiens, UniProt P25101)
T3 sequence (P25101 whole entry): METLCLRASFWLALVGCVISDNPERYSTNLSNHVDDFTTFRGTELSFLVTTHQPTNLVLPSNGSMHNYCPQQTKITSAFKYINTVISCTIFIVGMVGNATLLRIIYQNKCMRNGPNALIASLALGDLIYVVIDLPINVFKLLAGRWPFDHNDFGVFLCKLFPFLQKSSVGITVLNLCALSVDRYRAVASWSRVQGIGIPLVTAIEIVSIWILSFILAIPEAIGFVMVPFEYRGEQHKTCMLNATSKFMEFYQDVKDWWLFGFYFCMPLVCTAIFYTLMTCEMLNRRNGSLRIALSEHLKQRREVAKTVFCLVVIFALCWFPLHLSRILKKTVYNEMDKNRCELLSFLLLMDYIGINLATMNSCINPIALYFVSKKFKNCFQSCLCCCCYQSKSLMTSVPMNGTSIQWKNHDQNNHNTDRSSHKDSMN

Vasopressin V2 receptor = Vasopressin V2 receptor (Homo sapiens, UniProt P30518)
Sequence of Vasopressin V2 receptor (P30518 whole entry): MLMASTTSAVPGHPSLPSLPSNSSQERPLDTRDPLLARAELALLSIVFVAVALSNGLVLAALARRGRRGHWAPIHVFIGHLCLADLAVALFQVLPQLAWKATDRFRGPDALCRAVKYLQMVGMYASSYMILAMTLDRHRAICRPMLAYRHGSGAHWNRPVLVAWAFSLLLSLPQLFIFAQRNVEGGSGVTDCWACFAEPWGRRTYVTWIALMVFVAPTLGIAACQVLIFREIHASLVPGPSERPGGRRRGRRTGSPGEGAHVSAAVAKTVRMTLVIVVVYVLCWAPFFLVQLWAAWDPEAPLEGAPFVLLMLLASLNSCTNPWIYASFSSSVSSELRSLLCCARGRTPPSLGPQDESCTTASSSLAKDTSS

B2 bradykinin receptor = target: T4, B2 bradykinin receptor (Homo sapiens, UniProt P30411)
T4 sequence (P30411 whole entry): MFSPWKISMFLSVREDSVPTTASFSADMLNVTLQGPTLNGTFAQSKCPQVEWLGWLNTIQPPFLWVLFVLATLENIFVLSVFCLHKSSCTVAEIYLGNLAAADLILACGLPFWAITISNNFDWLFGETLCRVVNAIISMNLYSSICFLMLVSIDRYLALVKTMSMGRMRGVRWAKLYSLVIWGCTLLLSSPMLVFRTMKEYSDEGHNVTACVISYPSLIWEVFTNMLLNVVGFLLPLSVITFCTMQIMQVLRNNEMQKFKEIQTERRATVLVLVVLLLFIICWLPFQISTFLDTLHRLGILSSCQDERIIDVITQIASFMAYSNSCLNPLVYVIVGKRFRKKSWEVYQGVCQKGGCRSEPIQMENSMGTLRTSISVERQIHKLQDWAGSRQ

[6] = target: T5, Gastrin/cholecystokinin type B receptor (Homo sapiens, UniProt P32239)
T5 sequence (P32239 whole entry): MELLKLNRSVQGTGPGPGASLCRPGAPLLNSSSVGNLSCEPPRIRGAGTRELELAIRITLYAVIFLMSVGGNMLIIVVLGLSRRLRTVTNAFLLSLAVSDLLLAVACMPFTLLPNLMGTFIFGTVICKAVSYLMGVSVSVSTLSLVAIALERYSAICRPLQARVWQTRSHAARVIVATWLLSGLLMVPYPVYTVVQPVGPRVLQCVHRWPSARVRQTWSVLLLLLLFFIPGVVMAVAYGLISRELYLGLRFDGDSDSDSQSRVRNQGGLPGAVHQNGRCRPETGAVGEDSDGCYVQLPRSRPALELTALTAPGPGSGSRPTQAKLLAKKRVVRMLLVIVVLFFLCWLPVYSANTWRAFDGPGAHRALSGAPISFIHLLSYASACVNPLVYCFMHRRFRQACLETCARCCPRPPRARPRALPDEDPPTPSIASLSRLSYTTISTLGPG

[7] = target: Gamma-aminobutyric acid receptor subunit alpha-1 (Rattus norvegicus, UniProt P62813)
Sequence of Gamma-aminobutyric acid receptor subunit alpha-1 (P62813 whole entry): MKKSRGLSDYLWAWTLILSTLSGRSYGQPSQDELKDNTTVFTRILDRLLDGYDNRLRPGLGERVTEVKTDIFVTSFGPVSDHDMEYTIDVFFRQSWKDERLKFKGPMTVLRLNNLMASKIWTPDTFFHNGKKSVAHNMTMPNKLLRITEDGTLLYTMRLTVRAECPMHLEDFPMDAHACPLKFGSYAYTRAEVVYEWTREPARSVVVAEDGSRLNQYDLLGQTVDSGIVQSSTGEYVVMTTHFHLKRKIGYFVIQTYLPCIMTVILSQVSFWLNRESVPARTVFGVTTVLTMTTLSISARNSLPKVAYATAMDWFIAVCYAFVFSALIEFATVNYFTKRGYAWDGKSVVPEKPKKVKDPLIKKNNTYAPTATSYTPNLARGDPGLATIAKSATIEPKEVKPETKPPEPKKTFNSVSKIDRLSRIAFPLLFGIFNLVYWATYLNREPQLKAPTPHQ

Acetylcholinesterase = Acetylcholinesterase (Homo sapiens, UniProt P22303); assay type: functional
Sequence of Acetylcholinesterase (P22303 whole entry): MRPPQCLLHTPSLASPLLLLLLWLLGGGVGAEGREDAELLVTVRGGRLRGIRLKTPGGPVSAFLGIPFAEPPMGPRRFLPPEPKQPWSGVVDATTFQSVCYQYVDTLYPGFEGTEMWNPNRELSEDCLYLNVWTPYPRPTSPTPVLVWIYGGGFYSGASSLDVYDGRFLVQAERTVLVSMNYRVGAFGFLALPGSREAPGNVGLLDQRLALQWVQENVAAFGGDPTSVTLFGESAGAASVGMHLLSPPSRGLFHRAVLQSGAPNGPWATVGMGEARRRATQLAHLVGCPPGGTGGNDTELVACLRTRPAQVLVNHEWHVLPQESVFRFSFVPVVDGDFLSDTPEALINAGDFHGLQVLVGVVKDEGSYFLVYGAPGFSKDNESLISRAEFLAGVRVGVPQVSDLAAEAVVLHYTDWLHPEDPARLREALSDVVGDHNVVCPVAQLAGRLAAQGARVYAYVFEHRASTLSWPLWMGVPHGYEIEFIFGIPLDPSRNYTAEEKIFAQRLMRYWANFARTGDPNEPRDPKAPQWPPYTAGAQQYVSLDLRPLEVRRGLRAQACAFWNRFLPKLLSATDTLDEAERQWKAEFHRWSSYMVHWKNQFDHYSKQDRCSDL

[8] = target: T2, Alpha-1A adrenergic receptor; assay type: functional, cell-based; remark: listed apart in the source
Prothrombin = Prothrombin (Homo sapiens, UniProt P00734); assay type: functional
[9] = target: Sodium-dependent dopamine transporter (Homo sapiens, UniProt Q01959)
Sequence of Sodium-dependent dopamine transporter (Q01959 whole entry): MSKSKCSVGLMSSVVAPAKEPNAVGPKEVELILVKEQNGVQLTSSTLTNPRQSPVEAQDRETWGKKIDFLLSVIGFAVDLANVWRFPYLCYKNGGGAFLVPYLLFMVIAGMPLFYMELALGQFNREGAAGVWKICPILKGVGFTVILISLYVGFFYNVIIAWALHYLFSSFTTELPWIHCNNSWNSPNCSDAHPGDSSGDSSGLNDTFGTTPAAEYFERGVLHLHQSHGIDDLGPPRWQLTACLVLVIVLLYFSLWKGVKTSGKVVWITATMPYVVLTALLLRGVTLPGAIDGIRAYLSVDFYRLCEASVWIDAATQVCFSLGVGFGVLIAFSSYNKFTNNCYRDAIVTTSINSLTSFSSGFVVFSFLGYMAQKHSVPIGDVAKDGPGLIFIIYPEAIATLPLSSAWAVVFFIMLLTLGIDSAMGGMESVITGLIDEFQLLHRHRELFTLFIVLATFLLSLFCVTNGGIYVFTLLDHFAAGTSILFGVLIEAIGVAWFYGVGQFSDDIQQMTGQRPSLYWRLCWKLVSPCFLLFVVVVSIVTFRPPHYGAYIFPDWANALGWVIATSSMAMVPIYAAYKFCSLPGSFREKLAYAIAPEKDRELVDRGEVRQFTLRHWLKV
Also: assay procedure not described here.

Sequence of Vasopressin V1a receptor (P37288 whole entry): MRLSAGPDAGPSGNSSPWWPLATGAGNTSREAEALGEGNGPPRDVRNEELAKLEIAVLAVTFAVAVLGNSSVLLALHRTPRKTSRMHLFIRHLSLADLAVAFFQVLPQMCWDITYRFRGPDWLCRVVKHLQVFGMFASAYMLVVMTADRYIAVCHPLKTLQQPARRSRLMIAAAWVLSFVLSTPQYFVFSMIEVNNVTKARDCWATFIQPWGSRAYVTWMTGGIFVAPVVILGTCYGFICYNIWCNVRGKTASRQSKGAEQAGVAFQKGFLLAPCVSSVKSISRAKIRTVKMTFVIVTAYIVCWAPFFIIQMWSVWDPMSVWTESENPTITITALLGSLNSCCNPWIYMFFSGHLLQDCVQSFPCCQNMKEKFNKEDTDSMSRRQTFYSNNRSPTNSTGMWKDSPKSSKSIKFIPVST

Compound | AC50 (Vasopressin V1a receptor) [µM] | AC50 [1] [µM] | AC50 [2] [µM] | AC50 [3] [µM] | AC50 [5] [µM] | AC50 (Vasopressin V2 receptor) [µM] | AC50 (B2 bradykinin receptor) [µM] | AC50 [6] [µM] | AC50 [7] [µM] | AC50 [4] [µM] | AC50 (Cannabinoid receptor 1) [µM] | AC50 (Endothelin-1 receptor) [µM] | AC50 (Acetylcholinesterase) [µM] | AC50 [8] [µM] | AC50 (Prothrombin) [µM] | AC50 [9] [µM]
CCOCC(O)COc1ccc(NC(=O)CC[S+](C)C)cc1 (centres undefined) | > 30 | > 30 | > 30 | > 30 | > 30 |  |  |  |  | > 30 | > 30 | > 30 |  |  |  | 
CCC[C@@]1(CCc2ccccc2)CC(O)=C([C@H](CC)c2cccc(NS(=O)(=O)c3ccc(C(F)(F)F)cn3)c2)C(=O)O1 | > 30 | > 30 | > 30 | > 30 | 6.3 |  |  |  |  | 4.7 | > 30 | > 30 |  |  |  | 
C=CC1=C(C(=O)O)N2C(=O)[C@@H](NC(=O)/C(=N\O)c3csc(N)n3)[C@H]2SC1 | > 30 | > 10 | > 30 | > 30 | > 10 | > 30 | > 30 | > 30 | > 10 | > 30 | > 30 |  |  |  |  | 
CN1CC2c3ccccc3Oc3ccc(Cl)cc3C2C1 (centres undefined) [ASENAPINE] | > 30 | 19 |  | > 30 | > 30 |  |  |  |  | 0.0014 | > 30 | > 30 |  |  |  | 
Cn1cnc2c(F)c(Nc3ccc(Br)cc3F)c(C(=O)NOCCO)cc21 [BINIMETINIB] | > 30 | > 30 | > 30 | > 30 | > 30 |  |  |  |  | > 30 | > 30 | > 30 |  |  |  | 
CC(C)C[C@H](NC(=O)[C@H](Cc1ccccc1)NC(=O)c1cnccn1)B(O)O [BORTEZOMIB] | > 30 | > 30 | > 30 | > 30 | > 30 | > 30 | > 30 | > 30 | > 30 |  |  |  |  |  |  | 
C[C@H](CCC(=O)O)[C@H]1CC[C@H]2[C@@H]3[C@H](O)C[C@@H]4C[C@H](O)CC[C@]4(C)[C@H]3CC[C@]12C [CHENODIOL] | > 30 | > 30 |  | > 30 | 27 |  |  |  |  | 19 | > 30 | > 30 |  |  |  | 
C[C@@H](O)[C@H]1C(=O)N2C(C(=O)O)=C(SCCN=CN)C[C@H]12 [IMIPENEM ANHYDROUS] | > 300 | > 300 | > 300 | > 300 | > 300 |  |  |  |  | > 300 | > 300 | > 300 |  |  |  | 
CS(=O)(=O)Nc1ccc([N+](=O)[O-])cc1Oc1ccccc1 [NIMESULIDE] | > 30 | > 30 |  |  | > 30 | 26 | 20 | > 30 | > 30 | > 30 | > 30 | > 30 | > 30 | > 30 | > 30 | 26.6
CO[C@@H]1[C@@H](OC(N)=O)[C@@H](O)[C@H](Oc2ccc3c(O)c(NC(=O)c4ccc(O)c(CC=C(C)C)c4)c(=O)oc3c2C)OC1(C)C [NOVOBIOCIN] | > 30 | > 30 | > 30 | > 30 | > 30 |  |  |  |  | > 30 | > 30 | > 30 |  |  |  | 
c1cnc2cc3c(cc2n1)[C@@H]1CNC[C@H]3C1 [VARENICLINE] | > 30 | > 30 | > 30 | > 30 | > 30 |  |  |  |  | > 30 | > 30 | > 30 |  |  |  | 

Second part, led by results:

AC50 (Vasopressin V1a receptor) [µM] | AC50 [1] [µM] | AC50 [2] [µM] | AC50 [3] [µM] | AC50 [5] [µM] | AC50 (Vasopressin V2 receptor) [µM] | AC50 (B2 bradykinin receptor) [µM] | AC50 [6] [µM] | AC50 [7] [µM] | Compound | AC50 [4] [µM] | AC50 (Cannabinoid receptor 1) [µM] | AC50 (Endothelin-1 receptor) [µM] | AC50 (Acetylcholinesterase) [µM] | AC50 [8] [µM] | AC50 (Prothrombin) [µM] | AC50 [9] [µM]
> 30 | > 30 | > 30 | > 30 | > 30 |  |  |  |  | O=C(O)[C@H]1/C(=C/CO)O[C@@H]2CC(=O)N21 [CLAVULANIC ACID] | > 30 | > 30 | > 30 |  |  |  | 
> 10 | > 10 | > 10 | > 10 | > 10 | > 10 | > 10 |  |  | CNC1(C)C2CCC(C2)C1(C)C (centres undefined) [MECAMYLAMINE] |  |  |  |  |  |  | 
> 30 | > 10 | > 30 | > 30 | > 10 | > 30 | > 30 | > 30 | > 10 | CCOc1ccccc1OCCN[C@H](C)Cc1ccc(OC)c(S(N)(=O)=O)c1 [TAMSULOSIN] |  |  |  |  |  |  | 
> 30 | > 30 | > 30 | > 30 | > 30 | > 30 | > 30 | > 30 | > 30 | C[C@H](Cn1cnc2c(N)ncnc21)OCP(=O)(O)O [TENOFOVIR ANHYDROUS] | > 30 |  |  |  |  |  | 
> 30 | > 30 | > 30 | > 30 | > 30 |  |  |  |  | COc1cc2c(cc1OC)C1CC(=O)C(CC(C)C)CN1CC2 (centres undefined) [TETRABENAZINE] | > 30 | > 30 | > 30 |  |  |  | 
> 30 | > 30 | > 30 | > 30 | > 30 |  |  |  |  | CC(C)(CO)c1cc2cc(NC(=O)C3(c4ccc5c(c4)OC(F)(F)O5)CC3)c(F)cc2n1C[C@@H](O)CO [TEZACAFTOR] | > 10 | > 30 | > 30 |  |  |  | 
> 30 | > 30 | > 30 | > 30 | > 30 |  |  |  |  | Nc1c2c(nc3ccccc13)CCCC2O (centres undefined) [VELNACRINE] | > 30 | > 30 | > 30 |  |  |  | 
